Results from the NIST ThermoML archive (doi:10.1016/j.jct.2009.08.009).
Numbers after ± are expanded uncertainties.

Test: xn = mol fraction of the nth substance listed
Details: 101 kPa, Liquid; for viscosity: Capillary tube (Ostwald / Ubbelohde) method; for speed of sound: Sing-around technique in a fixed-path interferometer; for mass density: Vibrating tube method

CCOCCOCCO [3,6-dioxa-1-octanol] + CCCCCCO
Details	mass density [kg/m3]	speed of sound [m/s]	viscosity [mPa·s]
293.15 K, x1 = 0.0515	828.146 ± 0.14	1322.4 ± 0.8	4.442 ± 0.027
293.15 K, x1 = 0.1039	837.651 ± 0.14	1324.9 ± 0.8	4.111 ± 0.025
293.15 K, x1 = 0.1456	845.454 ± 0.13	1327.5 ± 0.8	3.932 ± 0.024
293.15 K, x1 = 0.2078	857.041 ± 0.13	1331.1 ± 0.8	3.714 ± 0.023
293.15 K, x1 = 0.2501	864.989 ± 0.13	1334.2 ± 0.8	3.614 ± 0.022
293.15 K, x1 = 0.3127	876.967 ± 0.12	1338.7 ± 0.8	3.482 ± 0.021
293.15 K, x1 = 0.3517	884.493 ± 0.12	1342.1 ± 0.8	3.423 ± 0.021
293.15 K, x1 = 0.5241	918.471 ± 0.11	1358.7 ± 0.8	3.279 ± 0.02
293.15 K, x1 = 0.6227	938.481 ± 0.11	1370.5 ± 0.9	3.308 ± 0.02
293.15 K, x1 = 0.7217	959.157 ± 0.1	1384.3 ± 0.9	3.352 ± 0.02
293.15 K, x1 = 0.8227	980.826 ± 0.097	1400.4 ± 0.9	3.384 ± 0.021
293.15 K, x1 = 0.915	1000.91 ± 0.093	1416.4 ± 0.9	3.588 ± 0.022
293.15 K, x1 = 1	–	–	3.626 ± 0.022
298.15 K, x1 = 0.0515	824.518 ± 0.14	1305.4 ± 0.8	3.906 ± 0.024
298.15 K, x1 = 0.1039	833.976 ± 0.14	1308 ± 0.8	3.655 ± 0.022
298.15 K, x1 = 0.1456	841.738 ± 0.13	1310.6 ± 0.8	3.495 ± 0.021
298.15 K, x1 = 0.2078	853.267 ± 0.13	1314.3 ± 0.8	3.352 ± 0.02
298.15 K, x1 = 0.2501	861.179 ± 0.13	1317.4 ± 0.8	3.237 ± 0.02
298.15 K, x1 = 0.3127	873.107 ± 0.12	1322 ± 0.8	3.121 ± 0.019
298.15 K, x1 = 0.3517	880.591 ± 0.12	1325.3 ± 0.8	3.066 ± 0.019
298.15 K, x1 = 0.5241	914.427 ± 0.11	1341.9 ± 0.8	2.951 ± 0.018
298.15 K, x1 = 0.6227	934.36 ± 0.11	1353.8 ± 0.8	2.965 ± 0.018
298.15 K, x1 = 0.7217	954.955 ± 0.1	1367.5 ± 0.9	3.009 ± 0.018
298.15 K, x1 = 0.8227	976.55 ± 0.098	1383.5 ± 0.9	3.054 ± 0.019
298.15 K, x1 = 0.915	996.56 ± 0.093	1399.5 ± 0.9	3.235 ± 0.02
298.15 K, x1 = 1	–	–	3.278 ± 0.02
303.15 K, x1 = 0.0515	820.874 ± 0.14	1288.7 ± 0.8	3.381 ± 0.021
303.15 K, x1 = 0.1039	830.282 ± 0.14	1291.3 ± 0.8	3.154 ± 0.019
303.15 K, x1 = 0.1456	838.004 ± 0.14	1293.9 ± 0.8	3.026 ± 0.019
303.15 K, x1 = 0.2078	849.482 ± 0.13	1297.6 ± 0.8	2.879 ± 0.018
303.15 K, x1 = 0.2501	857.352 ± 0.13	1300.7 ± 0.8	2.809 ± 0.017
303.15 K, x1 = 0.3127	869.225 ± 0.13	1305.3 ± 0.8	2.726 ± 0.017
303.15 K, x1 = 0.3517	876.678 ± 0.12	1308.7 ± 0.8	2.682 ± 0.017
303.15 K, x1 = 0.5241	910.37 ± 0.12	1325.3 ± 0.8	2.584 ± 0.016
303.15 K, x1 = 0.6227	930.226 ± 0.11	1337.1 ± 0.8	2.605 ± 0.016
303.15 K, x1 = 0.7217	950.745 ± 0.1	1350.8 ± 0.8	2.647 ± 0.016
303.15 K, x1 = 0.8227	972.261 ± 0.099	1366.7 ± 0.9	2.693 ± 0.017
303.15 K, x1 = 0.915	992.202 ± 0.094	1382.6 ± 0.9	2.801 ± 0.017
303.15 K, x1 = 1	–	–	2.862 ± 0.018
308.15 K, x1 = 0.0515	817.198 ± 0.14	1272.1 ± 0.8	2.901 ± 0.018
308.15 K, x1 = 0.1039	826.564 ± 0.14	1274.7 ± 0.8	2.72 ± 0.017
308.15 K, x1 = 0.1456	834.246 ± 0.14	1277.3 ± 0.8	2.631 ± 0.016
308.15 K, x1 = 0.2078	845.669 ± 0.13	1280 ± 0.8	2.503 ± 0.016
308.15 K, x1 = 0.2501	853.504 ± 0.13	1284.2 ± 0.8	2.443 ± 0.015
308.15 K, x1 = 0.3127	865.322 ± 0.13	1288.8 ± 0.8	2.374 ± 0.015
308.15 K, x1 = 0.3517	872.742 ± 0.12	1292.1 ± 0.8	2.342 ± 0.015
308.15 K, x1 = 0.5241	906.299 ± 0.12	1308.8 ± 0.8	2.266 ± 0.014
308.15 K, x1 = 0.6227	926.073 ± 0.11	1320.6 ± 0.8	2.278 ± 0.015
308.15 K, x1 = 0.7217	946.516 ± 0.11	1334.2 ± 0.8	2.297 ± 0.015
308.15 K, x1 = 0.8227	967.953 ± 0.1	1350 ± 0.8	2.349 ± 0.015
308.15 K, x1 = 0.915	987.826 ± 0.096	1365.8 ± 0.9	2.445 ± 0.015
308.15 K, x1 = 1	–	–	2.507 ± 0.016

CCCCCCCCCCO [decan-1-ol] + CCOCCOCCO
x2 = 0
Details	viscosity [mPa·s]
293.15 K	13.04 ± 0.067
298.15 K	11.19 ± 0.059
303.15 K	9.066 ± 0.049
308.15 K	7.459 ± 0.042

CCCCCCO [hexan-1-ol] + CCOCCOCCO
x2 = 0
Details	viscosity [mPa·s]
293.15 K	4.963 ± 0.03
298.15 K	4.439 ± 0.027
303.15 K	3.675 ± 0.022
308.15 K	3.108 ± 0.019

CCCCCCCCO [octan-1-ol] + CCOCCOCCO
x2 = 0
Details	viscosity [mPa·s]
293.15 K	8.309 ± 0.045
298.15 K	7.143 ± 0.04
303.15 K	5.969 ± 0.035
308.15 K	5.009 ± 0.03
